From patent US9505768B2, “Compositions and methods for modulating TLR4” (The Regents of the University of California, priority 2012, dated 2016) come the findings set out here.

In data set [1] the test system is mouse bone marrow derived dendritic cells (mBMDC). Kind of data set: IL-6 induction in mouse bone marrow derived dendritic cells (ELISA). In kind it is cell-based. Particulars: relative to Cmpd 1 / within series. The method, then: (§1) The above assays were utilized to compare the derivatives of the lead pyrimidoindole for their ability to activate mouse and human TLR4. […] Each cytokine induction curve was first converted to a percent activity curve, and then the AUC of the percent activity curve was calculated. The process of converting to a percent activity curve allowed subtracting background and adjusting for plate-to-plate variation.
(§2) BMDC were prepared from C57BL/6 mice as described. See e.g., Wu, C. […] BMDC (10^5 cells per well) were plated in 96-well plates in 200 μL of complete RPMI1640 supplemented with 10% fetal calf serum (FCS; Sigma Aldrich), 100 U/mL penicillin, and 100 μg/mL streptomycin (Invitrogen). […] After 18 h incubation, the cell culture supernatants were collected. LPS (purified LPS, Invivogen, San Diego, Calif.) or MPLA (1 μg/mL synthetic MPLA, Invivogen, San Diego, Calif.) were used as positive controls. […] The AUC was calculated from BMDC dose-response curves using Prism 5 (GraphPad, San Diego). Each cytokine induction curve was first converted to a percent activity curve, and then the AUC of the percent activity curve was calculated. The process of converting to a percent activity curve allowed subtracting background and adjusting for plate-to-plate variation.
For orientation: An ELISA detects its analyte on a solid surface through an enzyme-linked reagent.

The test system is the same in data set [2]. Kind of data set: IP-10 induction in mBMDC (ELISA), surrogate marker of type I IFN. The data set is classed as cell-based. Particulars: relative to Cmpd 1. The method, then:
In addition to the production of inflammatory cytokines (IL-6, IL-12, TNFα, etc.) mediated by NFκB activation, TLR4 signaling can result in the production of type I interferons, a feature that is not only important for activation of dendritic cells leading to good adjuvant activity, but would also be important for rapid defense against a variety of pathogens, particularly viruses. […] To determine the relative ability of all compounds to induce the production of type 1 IFN, each was evaluated in mouse bone marrow derived dendritic cells as shown in Tables 1-3.
as §2
In addition, the levels of IP-10, a surrogate marker of type I IFN, in the supernatants were determined by ELISA (R&D Systems, Minneapolis, Minn.).

A further data set has as its target T1, mouse TLR4 (Mus musculus, UniProt Q9JHF9+Q9QUK6).
T1 construct: host or cells: HEK293 (HEK Blue) cells with NFκB/SEAP reporter
T1 sequence (Q9QUK6 26-835): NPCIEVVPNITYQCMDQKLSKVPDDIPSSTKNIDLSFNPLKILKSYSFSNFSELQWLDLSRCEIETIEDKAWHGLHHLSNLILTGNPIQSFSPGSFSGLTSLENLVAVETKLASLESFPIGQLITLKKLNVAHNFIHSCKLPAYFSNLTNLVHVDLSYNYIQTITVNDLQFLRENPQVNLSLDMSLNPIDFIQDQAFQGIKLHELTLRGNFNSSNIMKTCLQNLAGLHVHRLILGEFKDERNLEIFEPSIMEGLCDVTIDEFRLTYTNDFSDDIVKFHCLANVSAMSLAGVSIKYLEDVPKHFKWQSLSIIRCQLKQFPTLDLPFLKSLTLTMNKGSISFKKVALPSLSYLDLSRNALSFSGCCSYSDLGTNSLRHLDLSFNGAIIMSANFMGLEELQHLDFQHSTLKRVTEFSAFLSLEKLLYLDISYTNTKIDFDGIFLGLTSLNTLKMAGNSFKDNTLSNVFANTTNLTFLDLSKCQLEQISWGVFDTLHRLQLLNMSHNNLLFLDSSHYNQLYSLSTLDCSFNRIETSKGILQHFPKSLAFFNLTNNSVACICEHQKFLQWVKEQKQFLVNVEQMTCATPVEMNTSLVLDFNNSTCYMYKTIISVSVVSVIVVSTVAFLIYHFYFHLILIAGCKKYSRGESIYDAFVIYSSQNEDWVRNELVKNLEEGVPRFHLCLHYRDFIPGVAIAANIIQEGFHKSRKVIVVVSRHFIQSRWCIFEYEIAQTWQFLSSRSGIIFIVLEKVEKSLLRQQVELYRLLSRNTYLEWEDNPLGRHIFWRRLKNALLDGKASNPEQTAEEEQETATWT
T1 sequence (Q9JHF9 19-160): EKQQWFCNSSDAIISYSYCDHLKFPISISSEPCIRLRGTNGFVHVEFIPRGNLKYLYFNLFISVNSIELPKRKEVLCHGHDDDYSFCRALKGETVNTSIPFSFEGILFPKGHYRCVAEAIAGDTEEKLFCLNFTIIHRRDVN
Kind of data set: Murine TLR4 HEK Blue NFκB/SEAP reporter assay. The data set is classed as cell-based. Particulars: for mouse TLR4, area under curve (AUC) values normalized to Cmpd 1: mTLR4 HEK transfectoma, 312 nM to 10 μM, Cmpd 1 set at 100. How it is done:
as §1
(§3) The culture supernatants were harvested after a 20-24 h incubation period. SEAP activity in the supernatants was determined by a colorimetric assay, using either the SEAPorter Assay Kit (Imgenex), with absorbance read at 405 nm, or QuantiBlue (Invivogen), with absorbance read at 630 nm.
A general note: In a reporter assay the amount or activity of a reporter protein is the signal.

For a further data set, the target named is T2, human TLR4 (Homo sapiens, UniProt O00206+Q9Y6Y9).
T2 construct: host or cells: HEK293 (HEK Blue) cells with NFκB/SEAP reporter
T2 sequence (O00206 24-839): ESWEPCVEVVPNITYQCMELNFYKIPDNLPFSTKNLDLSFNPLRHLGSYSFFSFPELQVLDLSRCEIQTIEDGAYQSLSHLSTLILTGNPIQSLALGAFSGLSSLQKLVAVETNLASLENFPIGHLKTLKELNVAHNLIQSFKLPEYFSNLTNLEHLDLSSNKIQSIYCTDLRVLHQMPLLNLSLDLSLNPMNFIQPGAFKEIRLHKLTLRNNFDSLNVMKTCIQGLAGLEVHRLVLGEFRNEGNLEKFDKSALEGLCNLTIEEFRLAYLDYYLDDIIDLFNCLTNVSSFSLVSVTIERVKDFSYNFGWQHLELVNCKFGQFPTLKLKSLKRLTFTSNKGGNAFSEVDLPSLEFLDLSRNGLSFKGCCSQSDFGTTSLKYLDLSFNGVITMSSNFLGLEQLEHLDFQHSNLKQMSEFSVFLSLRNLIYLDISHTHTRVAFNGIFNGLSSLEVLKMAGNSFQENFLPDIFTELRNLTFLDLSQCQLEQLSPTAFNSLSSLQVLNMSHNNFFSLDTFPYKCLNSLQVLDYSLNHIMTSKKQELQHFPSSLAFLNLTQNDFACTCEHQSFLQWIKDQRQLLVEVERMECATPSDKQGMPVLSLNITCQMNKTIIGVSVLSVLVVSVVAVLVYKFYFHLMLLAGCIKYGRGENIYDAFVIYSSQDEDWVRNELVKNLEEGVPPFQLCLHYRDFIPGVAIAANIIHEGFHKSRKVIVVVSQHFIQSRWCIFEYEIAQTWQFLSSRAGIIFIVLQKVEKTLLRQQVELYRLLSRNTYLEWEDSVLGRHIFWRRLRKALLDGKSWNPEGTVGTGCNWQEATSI
T2 sequence (Q9Y6Y9 19-160): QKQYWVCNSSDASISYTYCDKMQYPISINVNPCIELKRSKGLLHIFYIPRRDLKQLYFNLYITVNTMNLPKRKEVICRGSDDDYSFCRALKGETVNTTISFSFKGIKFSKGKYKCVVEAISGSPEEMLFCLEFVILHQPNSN
As to the kind of experiment: Human TLR4 HEK Blue NFκB/SEAP reporter assay. In kind it is cell-based. Particulars: for human TLR4, values normalized to Cmpd 1: hTLR4 HEK293 transfectoma, all compounds tested at 10 μM, Cmpd 1 set at 100. The method, then: as §1, §3

Data set [3] has as its system C57BL/6 mice. Kind of data set: Protection from LPS/galactosamine-induced lethal liver injury. Particulars: i.p. pretreatment (500 nmol Cmpd, 40 μg MPLA), next day LPS 0.2 μg + galactosamine 12 mg per animal; survivors/treated. The data set is classed as in vivo, mouse. How it is done:
FIGS. 11A-11B depict that administration of Cmpd 42 and Cmpd 33 protects hosts from LPS-induced lethal liver injury. FIG. 11A: Schematic showing that C57BL/6 mice were intraperitoneously injected with 500 nmol Cmpd. 42 (n=11) or Cmpd 33 (n=11). 40 μg MPLA (n=9) and vehicle (n=9) were used as positive and negative controls, respectively. Next day, mice were challenged with LPS (0.2 μg/animal) and galactosamine (12 mg/animal). FIG. 11B: Histogram showing results of sera collected 1.5 h post challenge and measured for TNFα. *:p<0.05 compared to vehicle treated mice.
Lipopolysaccharide (LPS), a TLR4 ligand, causes severe lethal liver injury when administered with galactosamine. Pretreatment of mice with MPLA is known to improve the survival in this model. To study whether Cmpd 42 and Cmpd 33 are able to act as immunomodulatory agents similar to MPLA, the mice were treated with Cmpd 42 or Cmpd 33 and challenged with LPS/galatosamine the next day, as depicted in FIG. 11A. Over 80% of Cmpd 42 and 100% of Cmpd 33-treated mice survived.

The test system of data set [4] is C57BL/6 mice.

Entries after “also recorded” stand apart in the source; their conditions may differ. Like-named read-outs stand apart in the source and are kept apart here.

`O=C(CSc1nc2c([nH]c3ccccc32)c(=O)n1-c1ccccc1)NC1CCCCCC1` [Compound 9, N-Cycloheptyl-2-((4-oxo-3-phenyl-4,5-dihydro-3H-pyrimido[5,4-b]indol-2-yl)thio)acetamide]: the “IL-6 activity in mBMDC (in words)” value in data set [1] is on record as “the most active; also recorded: high IL-6”. In addition, the “IP-10 production in mBMDC (in words)” value in data set [2] is reported as “high IP-10 production”. In addition, the “mouse TLR4, area under curve (AUC) values normalized to Cmpd 1” value at mouse TLR4 came to 99. The “human TLR4, values normalized to Cmpd 1” value at human TLR4 was 100.
As for `O=C(CSc1nc2c([nH]c3ccccc32)c(=O)n1-c1ccccc1)NC1CCCCCCC1` [Compound 10, N-cyclooctyl-2-((4-oxo-3-phenyl-4,5-dihydro-3H-pyrimido[5,4-b]indol-2-yl)thio)acetamide], in data set [1], the “IL-6 activity in mBMDC (in words)” value is “the most active; also recorded: high IL-6”. In addition, the “IP-10 production in mBMDC (in words)” value in data set [2] is given as “high IP-10 production”. For the same compound, the “mouse TLR4, area under curve (AUC) values normalized to Cmpd 1” value on mouse TLR4 came out at 95. For the same compound, the “human TLR4, values normalized to Cmpd 1” value on human TLR4 amounted to 64.
As to `O=C(CSc1nc2c([nH]c3ccccc32)c(=O)n1-c1ccccc1)NC1CCC1` [Compound 12, N-cyclobutyl-2-((4-oxo-3-phenyl-4,5-dihydro-3H-pyrimido[5,4-b]indol-2-yl)thio)acetamide], the “IL-6 activity in mBMDC (in words)” value in data set [1] was “diminished IL-6 release”. In addition, in data set [2], the “IP-10 production in mBMDC (in words)” value was “nearly equivalent induction of IP-10”. On mouse TLR4, the “mouse TLR4, area under curve (AUC) values normalized to Cmpd 1” value was 18. The “human TLR4, values normalized to Cmpd 1” value on human TLR4 came out at 32.
On the same counts, the results for `CC(C)(C)CCNC(=O)CSc1nc2c([nH]c3ccccc32)c(=O)n1-c1ccccc1` [Compound 28, N-(3,3-dimethylbutyl)-2-((4-oxo-3-phenyl-4,5-dihydro-3H-pyrimido[5,4-b]indol-2-yl)thio)acetamide] are “among the most active of the alkyls; also recorded: high IL-6”, “high IP-10 production”, 126 and 72.
On the same counts, the results for `CCC(C)CCNC(=O)CSc1nc2c([nH]c3ccccc32)c(=O)n1-c1ccccc1` (centres unmarked) [Compound 29, N-(3-methylpentyl)-2-((4-oxo-3-phenyl-4,5-dihydro-3H-pyrimido[5,4-b]indol-2-yl)thio)acetamide] are “diminished IL-6 release”, “nearly equivalent induction of IP-10”, 29 and 17.
As for `CCCC(C)NC(=O)CSc1nc2c([nH]c3ccccc32)c(=O)n1-c1ccccc1` (centres unmarked) [Compound 30, 2-((4-oxo-3-phenyl-4,5-dihydro-3H-pyrimido[5,4-b]indol-2-yl)thio)-N-(pentan-2-yl)acetamide], the “IL-6 activity in mBMDC (in words)” value in data set [1] is given as “diminished IL-6 release”. For the same compound, the “IP-10 production in mBMDC (in words)” value in data set [2] is recorded as “nearly equivalent induction of IP-10”. In addition, on mouse TLR4, the “mouse TLR4, area under curve (AUC) values normalized to Cmpd 1” value was 17. Also, the “human TLR4, values normalized to Cmpd 1” value on human TLR4 is given as 13.
Turning to `O=C(CSc1nc2c([nH]c3ccccc32)c(=O)n1-c1ccc2ccccc2c1)NC1CCCCC1` [Compound 39, N-cyclohexyl-2-((3-(naphthalen-2-yl)-4-oxo-4,5-dihydro-3H-pyrimido[5,4-b]indol-2-yl)thio)acetamide], the “IL-6 activity in mBMDC (in words)” value in data set [1] is on record as “total loss of activity”. In addition, the “mouse TLR4, area under curve (AUC) values normalized to Cmpd 1” value at mouse TLR4 came out at 6. In addition, the “human TLR4, values normalized to Cmpd 1” value on human TLR4 was 3.
The like results for `O=C(CSc1nc2c([nH]c3ccccc32)c(=O)n1CCc1ccccc1)NC1CCCCC1` [Compound 40, N-cyclohexyl-2-((4-oxo-3-phenethyl-4,5-dihydro-3H-pyrimido[5,4-b]indol-2-yl)thio)acetamide] were, in that order, “total loss of activity”, 1 and 1.
The like results for `O=C(CSc1nc2c([nH]c3ccccc32)c(=O)n1C1CCCCC1)NC1CCCC1` [Compound 41, 2-((3-Cyclohexyl-4-oxo-4,5-dihydro-3H-pyrimido[5,4-b]indol-2-yl)thio)-N-cyclopentylacetamide] were, in that order, “partial loss of activity”, 19 and 33.
The like results for `CN(C(=O)CSc1nc2c3ccccc3n(C)c2c(=O)n1-c1ccccc1)C1CCCCC1` [Compound 43, N-cyclohexyl-N-methyl-2-((5-methyl-4-oxo-3-phenyl-4,5-dihydro-3H-pyrimido[5,4-b]indol-2-yl)thio)acetamide] were, in that order, “total loss of IL-6 activity”, 1 and <1.
`COC(=O)CCCn1c2ccccc2c2nc(SCC(=O)NC3CCCCC3)n(-c3ccccc3)c(=O)c21` [Compound 44, Methyl 4-(2-((2-(cyclohexylamino)-2-oxoethyl)thio)-4-oxo-3-phenyl-3H-pyrimido[5,4-b]indol-5(4H)-yl)butanoate]: the “IL-6 activity in mBMDC (in words)” value in data set [1] was “very little IL-6”. At mouse TLR4, the “mouse TLR4 reporter cell activation (in words)” value is “good activity” and the “mouse TLR4, area under curve (AUC) values normalized to Cmpd 1” value was 9. For the same compound, at human TLR4, the “human TLR4 reporter cell activation (in words)” value is “good activity” and the “human TLR4, values normalized to Cmpd 1” value was found to be 19.
On to “monophosphoryl lipid A [MPLA, reference compound]”, for which the Survival was 8/9 in the data set with C57BL/6 mice [3] and 0/5 in the data set with C57BL/6 mice [4] (i.p. 500 nmol Cmpd 42, MPL 40 μg or LPS 0.2 μg mixed with galactosamine 12 mg, survivors/treated). The “Serum TNFα levels” value with C57BL/6 mice [4] (with galactosamine 12 mg/animal, up to 15 μmol/animal Cmpd 33, 1 μmol/animal Cmpd 42, 10 μg/animal MPLA) is given as “induced detectable TNFα”.
